Converted amounts (≈) assume the structure as drawn.
Columns and labels:
[1] = tested on: C. krusei; test: In vitro activity by the agar dilution method, C. krusei; format: cell-based; settings: Pichia kudriavzevii; Kimmig's agar, 25° C., 48 h; read-out: MIC (minimal inhibitory concentration), C. krusei
Protocol: (§1) In vitro activity was evaluated against C. albicans, C. krusei, and Aspergillus fumigatus by the agar dilution method. Test strains were either clinical isolates or were obtained from ATCC. Stock solutions containing 800 μg/mL were prepared by solving the test products in 50% ethanol. The culture medium used was Kimmig's agar (K. A., E. Merck) supplemented with 0.5% glycerol. Plates containing serial dilutions (80 to 0.025 gg/imL) of the test products were inoculated with 10 μL of the fungal inocula, containing 10^5 colony forming units (cfu)/mL. Plates were incubated at 25° C. during 48 h for Candida sp. and during 5 days for Apergillus fumigatus. Following incubation MICs (minimal inhibitory concentrations) were determined.

[2] = tested on: C. albicans; test: In vitro activity by the agar dilution method, C. albicans; format: cell-based; settings: Candida albicans; Kimmig's agar, 25° C., 48 h; read-out: MIC (minimal inhibitory concentration), C. albicans
Protocol: as §1

[3] = tested on: Aspergillus fumigatus; test: In vitro activity by the agar dilution method, Aspergillus fumigatus; format: cell-based; settings: 120 h, Kimmig's agar, 25° C., 5 days, read-out: MIC (minimal inhibitory concentration), Asp. fumigatus
Protocol: as §1

[4] = tested on: Candida albicans; test: In Vivo Activity (Systemic Candidiasis); settings: po, 576 h, orally at 1 mg/kg at 1, 4 and 24 h after infection, male mice, i.v. infection, read-out: protection on the day where all the animals in the control group had died
Protocol: Groups of 10 male mice were inoculated i.v. with 0.2 mL of a suspension containing (2-8)×10^7 cfu/mL of Candida albicans. Compounds were administered orally at 1 mg/kg (or at 10 mg/kg for those compounds marked with an asterisk) at times 1, 4 and 24 h after infection.

SMILES	MIC [1] [µg/mL]	MIC [2] [µg/mL]	MIC [3] [µg/mL]	responders at 1 mg/kg [4] [%]
C[C@@H](n1cnc2cc(N(C)C)c(F)cc2c1=O)[C@](O)(Cn1cncn1)c1ccc(F)cc1F [Example 4, (1R,2R)-3-[2-(2,4-Difluorophenyl)-2-hydroxy-1-methyl-3-(1H-1,2,4-triazol-1-yl)propyl]-7-dimethylamino-6-fluoroquinazolin-4(3H)-one]	0.63 (≈ 1.37 µM)	0.15 (≈ 0.327 µM)	10 (≈ 21.8 µM)	–
C[C@@H](n1cnc2ccccc2c1=O)[C@](O)(Cn1cncn1)c1ccc(F)cc1F [Example 5, (1R,2R)-3-[2-(2,4-Difluorophenyl)-2-hydroxy-1-methyl-3-(1H-1,2,4-triazol-1-yl)propyl]quinazolin-4(3H)-one]	5 (≈ 12.6 µM)	0.07 (≈ 0.176 µM)	10 (≈ 25.2 µM)	–
C[C@@H](n1cnc2c(Cl)cc(Cl)cc2c1=O)[C@](O)(Cn1cncn1)c1ccc(F)cc1F [Example 9, (1R,2R)-6,8Dichloro-3-[2-(2,4-difluorophenyl)-2-hydroxy-1-methyl-3-(1H-1,2,4-triazol-1-yl)propyl]quinazolin4(3H)-one]	–	–	–	100
C[C@@H](n1cnc2ccc(Br)cc2c1=O)[C@](O)(Cn1cncn1)c1ccc(F)cc1F [Example 10, (1R,2R)-6-Bromo-3-[2-(2,4-difluorophenyl)-2-hydroxy-1-methyl-3-(1H-1,2,4-triazol-1-yl)propyl]quinazolin4(3H)-one]	–	–	–	100
C[C@@H](n1cnc2cc(F)ccc2c1=O)[C@](O)(Cn1cncn1)c1ccc(F)cc1F [Example 12, (1R,2R)-3-[2-(2,4-Difluorophenyl)-2-hydroxy-1-methyl-3-(1H-1,2,4-triazol-1-yl)propyl]-7-fluoroquinazolin-4(3H)-one]	1.25 (≈ 3.01 µM)	≤ 0.03	1.25 (≈ 3.01 µM)	–
C[C@@H](n1cnc2cc(OCC(F)F)ccc2c1=O)[C@](O)(Cn1cncn1)c1ccc(F)cc1F [Example 19, (1R,2R)-7-(2,2-Difluoroethoxy)-3-[2-(2,4-difluorophenyl)-2-hydroxy-1-methyl-3-(1H-1,2,4-triazol-1-yl)propyl]quinazolin-4(3H)-one]	–	–	–	100
Cc1ccc2ncn([C@H](C)[C@](O)(Cn3cncn3)c3ccc(F)cc3F)c(=O)c2c1 [Example 24, (1R,2R)-3-[2-(2,4-Difluorophenyl)-2-hydroxy-1-methyl-3-(1H-1,2,4-triazol-1-yl)propyl]-6-methylquinazolin-4(3H)-one]	2.5 (≈ 6.08 µM)	≤ 0.03	40 (≈ 97.2 µM)	–
C[C@@H](n1cnc2cc(-c3ccc(C(F)(F)F)cc3)sc2c1=O)[C@](O)(Cn1cncn1)c1ccc(F)cc1F [Example 33, (1R,2R)-3-[2-(2,4-Difluorophenyl)-2-hydroxy-1-methyl-3-(1H-1,2,4-triazol-1-yl)propyl]-6-[(4-trifluoromethyl)phenyl]thieno[3,2-d]pyrimidin-4(3H)-one]	–	–	–	100
C[C@@H](n1cnc2cc(-c3ccc(OCC(F)(F)C(F)F)cc3)sc2c1=O)[C@](O)(Cn1cncn1)c1ccc(F)cc1F [Example 34, (1R,2R)-3-[2-(2,4-Difluorophenyl)-2-hydroxy-1-methyl-3-(1H-1,2,4-triazol-1-yl)propyl]-6-[4-(2,2,3,3-tetrafluoropropoxy)phenyl]thieno[3,2-d]pyrimidin-4(3H)-one]	–	–	–	100
C[C@@H](n1cnc2cc3ccccc3cc2c1=O)[C@](O)(Cn1cncn1)c1ccc(F)cc1F [Example 38, (1R,2R)-3-[2-(2,4-Difluorophenyl)-2-hydroxy-1-methyl-3-(1H-1,2,4-triazol-1-yl)propyl]benzo[g]quinazolin4(3H)-one]	5 (≈ 11.2 µM)	≤ 0.03	20 (≈ 44.7 µM)	–
C[C@@H](n1cnc2cc(-n3cncn3)ccc2c1=O)[C@](O)(Cn1cncn1)c1ccc(F)cc1F [Example 48, (1R,2)-3-[2-(2,4-Difluorophenyl)-2-hydroxy-1-methyl-3-(1H-1,2,4-triazol-1-yl)propyl]-7-(1H-1,2,4-triazol-1-yl)quinazolin-4(3H)-one]	–	–	–	100
C[C@@H](n1cnc2cc(S(C)(=O)=O)ccc2c1=O)[C@](O)(Cn1cncn1)c1ccc(F)cc1F [Example 51, (1R,2R)-3-[2-(2,4-Difluorophenyl)-2-hydroxy-1-methyl-3-(1H-1,2,4-triazol-1-yl)propyl]-7-(methylsulfonyl)quinazolin-4(3H)-one]	–	–	–	100
C[C@@H](n1cnc2cc(Cl)ccc2c1=O)[C@](O)(Cn1cncn1)c1ccc(Cl)cc1Cl [Example 52, (1R,2R)-7-Chloro-3-[2-(2,4-dichlorophenyl)-2-hydroxy-1-methyl-3-(1H-1,2,4-triazol-1-yl)propyl]quinazolin-4(3H)-one]	–	–	–	100
C[C@@H](n1cnc2cc(C(F)(F)F)ccc2c1=O)[C@](O)(Cn1cncn1)c1ccc(Cl)cc1Cl [Example 53, (1R,2R)-3-[2-(2,4-Dichlorophenyl)-2-hydroxy-1-methyl-3-(1H-1,2,4-triazol-1-yl)propyl]-7-trifluoromethylquinazolin-4(3H)-one]	–	–	–	100
C[C@@H](n1cnc2cc(-c3ccc(Cl)cc3)sc2c1=O)[C@](O)(Cn1cncn1)c1ccc(Cl)cc1Cl [Example 54, (1R,2R)-6-(4-Chlorophenyl)-3-[2-(2,4-dichlorophenyl)-2-hydroxy-1-methyl-3-(1H-1,2,4-triazol-1-yl)propyl]thieno[3,2-d]pyrimidin-4(3H)-one]	–	–	–	100
C[C@@H](n1cnc2cc(-c3ccc(C#N)cc3)sc2c1=O)[C@](O)(Cn1cncn1)c1ccc(Cl)cc1Cl [Example 55, (1R,2R)-4-[3-[2-(2,4-Dichlorophenyl)-2-hydroxy-1-methyl-3-(1H-1,2,4-triazol-1-yl)propyl]-4-oxo-3,4-dihydrothieno[3,2-d]pyrimidin-6-yl]benzonitrile]	–	–	–	100
C[C@@H](n1cnc2cc(Sc3ccccc3)ccc2c1=O)[C@](O)(Cn1cncn1)c1ccc(F)cc1F [Example 60, (1R,2R)-3-[2-(2,4-Difluorophenyl)-2-hydroxy-1-methyl-3-(1H-1,2,4-triazol-1-yl)propyl]-7-(phenylthio)quinazolin-4(3H)-one]	0.31 (≈ 0.613 µM)	≤ 0.03	0.63 (≈ 1.25 µM)	–
C[C@@H](n1cnc2cc(-c3ccc(C(=N)NO)cc3)sc2c1=O)[C@](O)(Cn1cncn1)c1ccc(F)cc1F [Example 62, (1R,2R)-3-[2-(2,4-Difluorophenyl)-2-hydroxy-1-methyl-3-(1H-1,2,4-triazol-1-yl)propyl]-6-[4-[(hydroxyamino)iminomethyl]phenyl]thieno[3,2-d]pyrimidin-4(3H)-one]	–	–	–	100
C[C@@H](n1cnc2cc(-c3ccc(C(=N)NC#N)cc3)sc2c1=O)[C@](O)(Cn1cncn1)c1ccc(F)cc1F [Example 65, (1R,2R)-6-[4-[Cyanoamino(imino)methyl]phenyl]-3-[2-(2,4-difluorophenyl)-2-hydroxy-1-methyl-3-(1H-1,2,4-triazol-1-yl)propyl]thieno[3,2-d]pyrimidin-4(3H)-one]	–	–	–	100
C[C@@H](n1cnc2cc(-c3ccc(C4=NCCO4)cc3)sc2c1=O)[C@](O)(Cn1cncn1)c1ccc(F)cc1F [Example 69, (1R,2R)-3-[2-(2,4-Difluorophenyl)-2-hydroxy-1-methyl-3-(1-H-1,2,4-triazol-1-yl)propyl]-6-[4-(4,5-dihydrooxazol-2-yl)phenyl]thieno[3,2-d]pyrimidin-4(3H)-one]	–	–	–	100

— US5807854A, “Pyrimidone derivatives with antifungal activity” (J. Uriah & Cia. S.A., priority 1995, dated 1998)
